Patent US8410302B2, “Methoxyimino compounds and fungicide composition comprising same” (Kyung Nong Corporation, priority 2007, dated 2013)

Experiments:
[1] = test system: Erysiphae graminis; assay: Fungicidal activity against barley powdery mildew (BPM) disease, control value; type: in vivo; conditions: 168 h, read-out: BPM control value (C.V.)
[2] = test system: Botrytis cinerae; assay: Fungicidal activity against cucumber gray mold rot (CGM) disease, control value; type: in vivo; conditions: Botrytis, read-out: CGM control value (C.V.)
[3] = test system: Rhizoctonia solani AG-1; assay: Fungicidal activity against rice sheath blight (RSB) disease, control value; conditions: Rhizoctonia solani, AG1, in Oryza sativa, read-out: RSB control value (C.V.)
[4] = test system: Pyricularia oryzae Carvara KA301; assay: whole plant or invertebrate; type: in vivo; conditions: Pyricularia oryzae, read-out: RCB control value (C.V.)
[5] = test system: Phytophthora infestans; assay: whole plant or invertebrate; type: in vivo; conditions: Phytophthora infestans, in Solanum lycopersicum, read-out: TLB control value (C.V.)
[6] = test system: Puccinia recondita; assay: Fungicidal activity against wheat leaf rust (WLR) disease, control value; type: in vivo; conditions: Puccinia recondita, read-out: WLR control value (C.V.)

SMILES	pest or weed control at 0.4 ppm [1] [%]	pest or weed control at 2 ppm [1] [%]	pest or weed control at 10 ppm [1] [%]	pest or weed control at 50 ppm [1] [%]	pest or weed control at 50 ppm [2] [%]	pest or weed control at 0.4 ppm [3] [%]	pest or weed control at 2 ppm [3] [%]	pest or weed control at 10 ppm [3] [%]	pest or weed control at 50 ppm [3] [%]	pest or weed control at 10 ppm [4] [%]	pest or weed control at 50 ppm [4] [%]	pest or weed control at 0.4 ppm [5] [%]	pest or weed control at 2 ppm [5] [%]	pest or weed control at 10 ppm [5] [%]	pest or weed control at 50 ppm [5] [%]	pest or weed control at 0.4 ppm [6] [%]	pest or weed control at 2 ppm [6] [%]	pest or weed control at 10 ppm [6] [%]	pest or weed control at 50 ppm [6] [%]	also measured
OC(c1ccc(Cl)cc1)(c1cncnc1)c1ccccc1Cl (stereo not shown) [Fenarimol, reference compound]	95	100	100	100	30	30	40	85	100	0	20	65	75	80	95	15	80	100	100	pest or weed control at 0.4 ppm ([2]; 0.4 ppm): 7%; pest or weed control at 2 ppm ([2]; 2 ppm): 7%; pest or weed control at 10 ppm ([2]; 10 ppm): 7%
CO/N=C(/C(=O)OC)c1ccccc1COc1ccccc1C [Kresoxim-methyl, reference compound]	95	100	100	100	30	67	90	98	100	95	100	30	80	95	100	85	95	100	100	pest or weed control at 0.4 ppm [4]: 30%; pest or weed control at 2 ppm [4]: 60%
